In patent publication US6709688B1, “Pigment” (Norsk Hydro ASA, priority 1999, dated 2004):
Read-outs that look alike come from different tables or passages of the source.

What was measured:
[1] = tested on: crude enzyme mixture from rainbow trout intestine; assay: Hydrolysis with crude enzyme mixture from rainbow trout intestine (Example 5); assay type: in vitro ADME, rainbow trout (Oncorhynchus mykiss); conditions: after 48 hours hydrolysis; for Diol (%): diol = free astaxanthin
Procedure: (§1) Tris buffer (0.25 M) solution was prepared by dissolving Tris (4.54 g; 37.5 mmol) in 150 ml of distilled water. The pH of the buffer solution was adjusted to 8.0 by adding 2 M hydrochloric acid. All the hydrolysis was done at room temperature so no special effort was necessary.
(§2) The astaxanthin diester was weighed accurately (˜40 mg, […]) along with 2.5 g of chremophor EL emulsifier (from BASF) into 100 ml Erlenmeyer flask. The solution was stirred vigorously for 20 minutes (until homogeneous) and then 20 ml of the Tris buffer was added and stirred for additional 10 minutes. The solution was suction filtered and the red filtrate was poured into 25 ml volumetric flask and diluted to the mark with buffer. Concentration of all the solution was determined spectrophotometically (492 nm) to be about 1 mg/ml, except for diacetate which was obtained in a lower concentration. All the solutions were stored in refrigerator wrapped in aluminium paper.
(§3) Fresh salmon and rainbow trout, that had been fed in the last 12 hours, were obtained from local fish farms. At the laboratory the fresh fish was cut open and the crude enzyme mixture extracted as follows: From the digestion line there were a lot of narrow tubes surrounded by fat tissue. Each of them was cut off and extracted by hand into a cooled container. The viscous solution (−50 ml) was diluted to 100 ml with 0.25 M Tris buffer and stirred for 30 minutes in an ice bath. Next step was centrifugation at 11.000 rpm for 20 minutes at 4° C. (RC5C from Du Pont). The water layer was extracted by pipette to another centrifuge glasses and the centrifugation repeated at 18.000 rpm for 30 minutes at 4° C. The water layer was transferred to Erlenmeyer flask and quickly frozen by liquid nitrogen. Before starting the reaction the mixture was thawed and purified by ultracentrifuge at 27.000 rpm for 45 minutes at 4° C. (157.000 g at top). The lipase preparation was obtained as a clear yellow solution.
(§4) Into a 10 ml round bottom flask was added 2 ml of stock solution and 3 ml of crude enzyme mixture from fish intestine. The flask was filled with nitrogen before closing, wrapped in aluminium paper and stirred for 48 hours. When finished, all the water was removed under reduced pressure (0.01 Torr) and redissolved in CH2Cl2. The solution was filtered through cotton wool plug and stored under nitrogen in a closed container. Analytical TLC was used to monitor the progress of the reaction with 5% acetone in CH2Cl2 as eluent (Diol(Rf=0.0-0.1), Monoest. (Rf=0.3-0.5), Diest. (Rf=0.8-0.9)). To determine the degree of hydrolysis all the samples were injected into analytical HPLC. [Eluent: 30% acetone in n-hexane. Column: Nucleosil 50-5 (2×30 cm) column. Flow rate: 0.15 ml/min. Detector: 470 nm (Diol Rf=0.4-0.5, Monoest. Rf=0.7, Diest. Rf=0.9-1.0)].
A similar example as Example 2b was performed. However, for this Example crude enzyme preparation from rainbow trout (Oncorhynchus mykiss) was used. […] For the fish oil 37% was unreacted, while for ACD only 14% remained unreacted. As for salmon, we observe that EPA reacts faster than DHA (17 and 21% unreacted), however for rainbow trout we observe that an omega-3 concentrate like the ACD diester gives higher degree of hydrolysis than the diester of purified EPA.

[2] = tested on: crude enzyme mixture from salmon intestine; assay: Hydrolysis with crude enzyme mixture from salmon intestine (Example 4); assay type: in vitro ADME; conditions: after 48 hours hydrolysis; for Diol (%): diol = free astaxanthin
Procedure: as §1, §2, §3, §4
A similar experiment as in Example 2 was performed with enzymes from salmon intestinal fluid.
The diesters that were hydrolysed were prepared by esterification of astaxanthin with the following carboxylic acids:
Acetic acid, C16:0 (palmitic acid), fatty acids from a fish oil rich in omega-3 fatty acids (approx. 18% EPA and 12% DHA, called K30 in the tables below), a concentrate of omega-3 fatty acids (approx. 30% EPA and 20% DHA, called K55 in the tables below), the same concentrate of EPA and DHA as used in example 2 (approx. 50% EPA and 35% DHA, called ACD in the tables below), purified EPA (more than 95% EPA, called EPA in the tables) and purified DHA (more than 90% DHA, called DHA in the tables).

[3] = tested on: enzymes from salmon intestinal fluid; assay: Hydrolysis of astaxanthin diesters with enzymes from salmon intestinal fluid (Example 2); assay type: in vitro ADME, Atlantic salmon; conditions: after 45 hours at room temperature
Procedure: To verify the hydrolysis data for these astaxanthin diesters obtained by using the commercial lipase, another similar experiment was performed by using enzyme isolated from the intestine of Atlantic salmon.
A similar experiment as Example 1 was performed with enzymes from salmon intestinal fluid. The intestinal fluid from salmon was collected as described from cod (Lie, Ø. et al., Comp. Biochem. Physiol., 80B (3), (1985), pp. 447-450). The following results were obtained after 45 hours at room temperature: […]

[4] = tested on: commercial lipase, Candida rugosa (Lipase AY, 30); assay: Hydrolysis of astaxanthin diesters by commercial lipase
Procedure: We synthesised several other diesters in order to study whether these hydrolysed faster than the dipalmitate.
Diesters of astaxanthin were prepared with the following carboxylic acids: elaidic acid (trans-C18:1), palmitic acid (C16:0), decanoic acid (C10:0) and a concentrate of omega-3 fatty acids comprising approximately 50% eicosapentaenoic acid (EPA) (all cis C20:5 n3) and approximately 35% docosahexaenoic acid (DHA) (all cis C22:6 n3). The different diesters were firstly hydrolysed by a commercial lipase, Candida rugosa (Lipase AY, 30).

[5] = cited from earlier work

| Structure (SMILES) | Diesters (%) [1] | Monoesters (%) [1] | Diol (%) [1] | Diesters (%) [2] | Monoesters (%) [2] | Diol (%) [2] | Free astaxanthin (%) [3] | Free astaxanthin (%) ([3]; listed as didecanoate) | Free astaxanthin (%) ([4]; after 42 hours at room temperature, commercial lipase Candida rugosa) | Free astaxanthin (%) [4] | Diol (%) ([2]; listed as diester of astaxanthin with palmitic acid (16:0)) | Free astaxanthin (%) ([3]; listed as C10:0) | pigmentation compared with the diol ([5]; literature) | absorption compared with free astaxanthin ([5]; rainbow trout, sea trout and Atlantic salmon) |
| --- | --- | --- | --- | --- | --- | --- | --- | --- | --- | --- | --- | --- | --- | --- |
| CC(=O)O [Acetate] | 3% | 83% | 14% | 13% | 80% | 7% | – | – | – | – | – | – | – | – |
| CCCCCCCCC=CCCCCCCCC(=O)OC1CC(C)(C)C(C=CC(C)=CC=CC(C)=CC=CC=C(C)C=CC=C(C)C=CC2=C(C)C(=O)C(OC(=O)CCCCCCCC=CCCCCCCCC)CC2(C)C)=C(C)C1=O (stereo not shown) [18:1] | – | – | – | – | – | – | 1% | – | 73% | – | – | – | – | – |
| CCCCCCCCCCCCCCCC(=O)O[C@H]1CC(C)(C)C(/C=C/C(C)=C/C=C/C(C)=C/C=C/C=C(C)/C=C/C=C(C)/C=C/C2=C(C)C(=O)[C@@H](OC(=O)CCCCCCCCCCCCCCC)CC2(C)C)=C(C)C1=O [16:0, astaxanthin dipalmitate, reference compound] | 71% | 18% | 11% | 81% | 19% | 0% | 1% | – | – | 40% | no free astaxanthin | – | less pigmentation than the diol | absorbed less easy than free astaxanthin |

The next lines start with results.

| Diesters (%) [1] | Monoesters (%) [1] | Diol (%) [1] | Diesters (%) [2] | Monoesters (%) [2] | Diol (%) [2] | Free astaxanthin (%) [3] | Free astaxanthin (%) ([3]; listed as didecanoate) | Free astaxanthin (%) ([4]; after 42 hours at room temperature, commercial lipase Candida rugosa) | Free astaxanthin (%) [4] | Diol (%) ([2]; listed as diester of astaxanthin with palmitic acid (16:0)) | Structure (SMILES) | Free astaxanthin (%) ([3]; listed as C10:0) | pigmentation compared with the diol ([5]; literature) | absorption compared with free astaxanthin ([5]; rainbow trout, sea trout and Atlantic salmon) |
| --- | --- | --- | --- | --- | --- | --- | --- | --- | --- | --- | --- | --- | --- | --- |
| 17% | 58% | 25% | 27% | 67% | 6% | – | – | – | – | – | CC/C=C\C/C=C\C/C=C\C/C=C\C/C=C\CCCC(=O)O[C@H]1CC(C)(C)C(/C=C/C(C)=C/C=C/C(C)=C/C=C/C=C(C)/C=C/C=C(C)/C=C/C2=C(C)C(=O)[C@@H](OC(=O)CCC/C=C\C/C=C\C/C=C\C/C=C\C/C=C\CC)CC2(C)C)=C(C)C1=O [EPA] | – | – | – |
| 21% | 55% | 24% | 44% | 53% | 3% | – | – | – | – | – | CC/C=C\C/C=C\C/C=C\C/C=C\C/C=C\C/C=C\CCC(=O)O[C@H]1CC(C)(C)C(/C=C/C(C)=C/C=C/C(C)=C/C=C/C=C(C)/C=C/C=C(C)/C=C/C2=C(C)C(=O)[C@@H](OC(=O)CC/C=C\C/C=C\C/C=C\C/C=C\C/C=C\C/C=C\CC)CC2(C)C)=C(C)C1=O [DHA] | – | – | – |
| – | – | – | – | – | – | 6% | 6% | – | – | – | CCCCCCCCCC(=O)O[C@H]1CC(C)(C)C(/C=C/C(C)=C/C=C/C(C)=C/C=C/C=C(C)/C=C/C=C(C)/C=C/C2=C(C)C(=O)[C@@H](OC(=O)CCCCCCCCC)CC2(C)C)=C(C)C1=O [10:0] | hydrolysed much faster than the dipalmitate | – | – |
